Test results reported in the supplement of paper PMC10307832.

Legend:
Assay in all cases: relative viability (nuclei count vs DMSO), 5 days (fraction); higher = more cells survive
AZD6482 + Decitabine = compound: Cc1cc([C@@H](C)Nc2ccccc2C(=O)O)c2nc(N3CCOCC3)cc(=O)n2c1 [AZD6482] + Nc1ncn([C@H]2C[C@H](O)[C@@H](CO)O2)c(=O)n1 [Decitabine] (partner 2 µM)
Summary of the method: (§1)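 Lung cancer cell lines in 1536-well plates got either a single drug or a fixed anchor-drug dose together with five library-drug doses (not always all listed) in √10 steps, by pin tool, on the day after seeding. Nuclei were counted after 5 days, and relative viability is the treated-to-vehicle ratio of nuclei counts. Values are medians of duplicate plates.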

AZD6482 + Tozasertib = compound: Cc1cc([C@@H](C)Nc2ccccc2C(=O)O)c2nc(N3CCOCC3)cc(=O)n2c1 [AZD6482] + Cc1cc(Nc2cc(N3CCN(C)CC3)nc(Sc3ccc(NC(=O)C4CC4)cc3)n2)n[nH]1 [Tozasertib] (partner 0.1 µM)
Summary of the method: as §1

[1] = compound: COc1cc2nc(N3CCCN(C)CC3)nc(NC3CCN(Cc4ccccc4)CC3)c2cc1OC + O=C(c1cc(Cc2n[nH]c(=O)c3ccccc23)ccc1F)N1CCN(C(=O)C2CC2)CC1 [Olaparib] (partner 8 µM)
Summary of the method: as §1

[2] = compound: COc1cc2nc(N3CCCN(C)CC3)nc(NC3CCN(Cc4ccccc4)CC3)c2cc1OC + CS(=O)(=O)CCNCc1ccc(-c2ccc3ncnc(Nc4ccc(OCc5cccc(F)c5)c(Cl)c4)c3c2)o1 [Lapatinib] (partner 2 µM)
Summary of the method: as §1

| Cell Line | relative viability (AZD6482 + Decitabine; first compound 0.08 µM) | relative viability (AZD6482 + Decitabine; first compound 0.253 µM) | relative viability (AZD6482 + Decitabine; first compound 0.8 µM) | relative viability (AZD6482 + Decitabine; first compound 2.53 µM) | relative viability (AZD6482 + Decitabine; first compound 8 µM) | relative viability (AZD6482 + Tozasertib; first compound 0.08 µM) | relative viability (AZD6482 + Tozasertib; first compound 0.253 µM) | relative viability (AZD6482 + Tozasertib; first compound 0.8 µM) | relative viability (AZD6482 + Tozasertib; first compound 2.53 µM) | relative viability (AZD6482 + Tozasertib; first compound 8 µM) | relative viability ([1]; first compound 0.2 µM) | relative viability ([1]; first compound 0.6325 µM) | relative viability ([1]; first compound 2 µM) | relative viability ([1]; first compound 6.325 µM) | relative viability ([2]; first compound 0.2 µM) | relative viability ([2]; first compound 0.6325 µM) | relative viability ([2]; first compound 2 µM) | relative viability ([2]; first compound 6.325 µM) |
| --- | --- | --- | --- | --- | --- | --- | --- | --- | --- | --- | --- | --- | --- | --- | --- | --- | --- | --- |
| HCC-827 | 0.341 | 0.301 | 0.342 | 0.267 | 0.264 | 0.379 | 0.405 | 0.422 | 0.342 | 0.287 | 0.753 | 0.626 | 0.685 | 0.622 | 0.181 | 0.196 | 0.198 | 0.193 |
| HOP-62 | 0.197 | 0.239 | 0.229 | 0.265 | 0.209 | 0.374 | 0.382 | 0.311 | 0.363 | 0.332 | 0.393 | 0.202 | 0.355 | 0.537 | 1.04 | 1.05 | 1.07 | 1 |
| IA-LM | – | – | – | – | – | – | – | – | – | – | 0.682 | 0.75 | 0.831 | 0.756 | – | 0.888 | 1.03 | 0.669 |
| LC-2-ad | 0.799 | 0.71 | 0.811 | 0.661 | 0.635 | 0.392 | 0.428 | 0.452 | 0.5 | 0.379 | 0.778 | 0.728 | 0.72 | 0.701 | 0.853 | 0.992 | 1.01 | 0.898 |
| LCLC-97TM1 | 0.218 | 0.204 | 0.196 | – | 0.213 | 0.206 | 0.208 | 0.168 | 0.158 | 0.128 | 0.488 | 0.312 | 0.48 | 0.63 | 0.875 | – | 1.17 | 0.836 |
| LCLC-103H | 0.597 | 0.682 | 0.677 | 0.716 | 0.519 | 0.486 | 0.456 | 0.472 | 0.412 | 0.303 | 0.751 | 0.732 | 0.802 | 0.748 | – | – | – | – |
| LK-2 | 0.34 | 0.315 | 0.288 | 0.241 | 0.301 | 0.142 | 0.162 | 0.15 | 0.182 | 0.168 | 0.778 | 0.68 | 0.893 | 0.867 | 0.983 | 0.996 | 1.14 | 0.909 |
| LOU-NH91 | 0.753 | 0.828 | 0.788 | 0.661 | 0.7 | 0.551 | 0.66 | 0.605 | 0.546 | 0.496 | 0.911 | 0.918 | 0.968 | 0.958 | 0.803 | 0.812 | 0.731 | 0.693 |
| LU99A | 0.803 | 0.858 | 0.968 | 0.801 | 0.775 | 0.281 | 0.294 | 0.253 | 0.263 | 0.247 | 0.287 | 0.215 | 0.249 | 0.287 | 0.909 | 0.93 | 1.1 | 0.898 |
| LXF-289 | 0.356 | 0.422 | 0.36 | 0.356 | 0.369 | 0.178 | 0.135 | 0.171 | 0.207 | 0.122 | 1.03 | 1.07 | 1.12 | 1.05 | 0.854 | 0.878 | 0.886 | 0.907 |
| NCI-H23 | 0.309 | 0.288 | 0.32 | 0.312 | 0.304 | 0.489 | 0.302 | 0.398 | 0.358 | 0.228 | 0.299 | 0.271 | 0.344 | 0.285 | 1.02 | 1.03 | 1.37 | 1.02 |
| NCI-H322M | 0.657 | 0.617 | 0.674 | 0.537 | 0.603 | 0.442 | 0.461 | 0.453 | 0.319 | 0.384 | 0.763 | 0.782 | 0.771 | 0.688 | 0.573 | 0.642 | 0.621 | 0.605 |
| NCI-H441 | 0.254 | 0.198 | 0.295 | – | 0.214 | 0.631 | 0.545 | 0.632 | – | 0.527 | 0.566 | 0.495 | 0.691 | 0.551 | – | – | – | – |
| NCI-H522 | 0.627 | 0.6 | 0.586 | 0.585 | 0.755 | 0.541 | 0.439 | 0.623 | 0.523 | 0.543 | 0.556 | 0.788 | 0.58 | 0.554 | – | – | – | – |
| NCI-H1299 | – | – | – | – | – | – | – | – | – | – | 0.951 | 0.909 | 0.997 | 0.928 | 0.965 | 0.933 | 0.972 | 0.862 |
| NCI-H1563 | – | – | – | – | – | – | – | – | – | – | – | – | – | – | 0.913 | 0.982 | 0.81 | 0.734 |
| NCI-H1623 | – | – | – | – | – | 0.384 | 0.382 | 0.397 | 0.419 | 0.371 | – | – | – | – | – | – | – | – |
| NCI-H1648 | 0.502 | 0.453 | 0.472 | – | 0.48 | 0.538 | 0.463 | 0.588 | 0.351 | 0.409 | – | 0.713 | – | 1.01 | – | – | – | – |
| NCI-H1703 | – | – | – | – | – | – | – | – | – | – | 0.395 | 0.334 | 0.365 | 0.394 | 0.981 | 0.901 | 1.05 | 0.458 |
| NCI-H1792 | 0.519 | 0.479 | 0.549 | 0.356 | 0.476 | – | – | – | – | – | 0.49 | 0.409 | 0.485 | 0.441 | 0.953 | 0.893 | 0.94 | 1.02 |
| NCI-H2228 | – | – | – | – | – | – | 0.257 | 0.235 | 0.287 | 0.155 | 0.637 | 0.62 | 0.46 | 0.35 | 0.959 | 1.34 | 1.23 | 0.757 |
| NCI-H2342 | 0.636 | 0.643 | 0.736 | 0.568 | 0.587 | 0.465 | 0.432 | 0.488 | 0.372 | 0.359 | 0.482 | 0.349 | 0.46 | 0.459 | – | – | – | – |
| SW 900 | 0.412 | 0.419 | 0.45 | 0.418 | 0.434 | 0.559 | 0.506 | 0.561 | – | 0.567 | 0.675 | 0.926 | 0.705 | 0.677 | – | – | – | – |
